Experimental data taken from patent publication US4812590A, “Carbamates of 4-hydroxyanisole as prodrugs for chemotherapy of melanoma” (priority 1987, dated 1989).
Like-named read-outs stand apart in the source and are kept apart here.

How the values were obtained:
[1] = Determination of carbamate half-lives: conversion of carbamate to 4-methoxyphenol in phosphate buffer, HPLC; format: physicochemical
Procedure: […] The resulting solution was heated at 37° while 20 μL samples were removed at intervals and injected directly into the HPLC injection port.
Unreacted carbamate and 4-methoxyphenol concentrations were determined by HPLC analysis with a C-18 reverse phase column using a mobile phase of 87.5% pH 2.4 phosphoric acid and 12.5% acetonitrile. The UV detector was set at 220 nm. The half-life (t1/2) is the time required for 50% conversion of carbamate to 4-methoxyphenol. Compounds (1), (2) and (3) are the preferred prodrugs for the treatment of melanomas.

pKa = format: physicochemical
[2] = Partition coefficient, octanol/pH 7.4 buffer; format: physicochemical
melanoma = settings: cited from earlier work
DNA synthesis = settings: cited from earlier work
[3] = after intra-arterial injection; cited from earlier work
[4] = test system: melanoma cells that contain tyrosinase; settings: Riley 1985; cited from earlier work
[5] = pH 7.4, pH 7.4 phosphate buffer, 37° (Table I), read-out: t1/2 (time required for 50% conversion of carbamate to 4-methoxyphenol)
[6] = pH 6.8, pH 6.8, 37° (Table I), read-out: t1/2

`COc1ccc(OC(=O)NCCCN)cc1.Cl` [(5), N-[3-Aminopropyl]carbamic acid 4-methoxyphenyl ester hydrochloride] gave a half-life [1, 5] of 12 h.

`CNCCCN(C)C(=O)Oc1ccc(OC)cc1` gave a half-life [1, 5] of 24.1 h.

Work on `COc1ccc(OC(=O)N(C)CCN(C)C)cc1` yielded a half-life [1, 6] of 3.23 h and a half-life [1, 5] of 0.9 h.

For `COc1ccc(OC(=O)N(C)CCN)cc1`, the half-life [1, 5] was 7.7 h.

Work on `CNCCNC(=O)Oc1ccc(OC)cc1` [(7)] yielded a half-life [1, 5] of 12.4 h.

`CNCCN(C)C(=O)Oc1ccc(OC)cc1` [Compound IV] showed a half-life ([1]; pH 7.4, phosphate buffer, pH 7.4 (37°), read-out: half-life of release of 4-hydroxyanisole) of 0.6 h, a pKa (pKa) of 8.88 and a logD [2] of -1.02.

`COc1ccc(OC(=O)NCCN)cc1` [(6)] showed a half-life [1, 5] of 12.1 h.

With `CCNCCN(CC)C(=O)Oc1ccc(OC)cc1` the half-life [1, 5] was 2.38 h.

In the case of `COc1ccc(O)cc1` [4-Hydroxyanisole, 4-hydroxyanisole], the “results of subsequent studies” value (melanoma; intra-arterial infusion) is given as “more promising results”, the “results of early clinical trials” value (melanoma; intralesional injection or i.v. infusion) is given as “disappointing” and the “effect on DNA synthesis” value (DNA synthesis) is given as “inhibits DNA synthesis”. For the same molecule, the half-life in blood [3] was 9 min and the “oxidation by tyrosinase and toxicity to melanoma cells” value [4] was “oxidized by tyrosinase to highly cytotoxic products and consequently is preferentially toxic to those melanoma cells that contain the enzyme”.

Work on `CNCCN(C)C(=O)Oc1ccc(OC)cc1` [drawing 8] yielded a half-life [1, 6] of 2.33 h and a half-life [1, 5] of 0.605 h.
